Source: ChEMBL document CHEMBL3259687, “Synthesis and identification of chiral aminomethylpiperidine carboxamides as inhibitor of collagen induced platelet activation” (Eur J Med Chem, 2014)
pIC50: −log10 of the molar value. Active and inactive are the calls of the source. The calls are words filed in the database; no cut-off is given here.

Key:
[1] = Antiplatelet activity in human platelet-rich plasma assessed as inhibition of collagen-induced platelet aggregation at 10 uM treated for 5 mins prior to collagen challenge for 5 mins by turbidimetric method; format: functional
Mus musculus [2] = assay: Antithrombotic activity in mouse assessed as protection against collagen-epinephrine-induced pulmonary thromboembolism at 30 uM/kg, po administered 60 mins prior to thrombotic challenge; format: functional
Mus musculus [3] = assay: Prolongation of bleeding time in mouse at 30 uM/kg, po administered as single dose by tail excision method; format: ADME, organism-based; settings: in vivo
[4] = Antiplatelet activity in human platelet-rich plasma assessed as inhibition of collagen-induced platelet aggregation at 30 uM treated for 5 mins prior to collagen challenge for 5 mins by turbidimetric method; format: functional
[5] = Antiplatelet activity in human platelet-rich plasma assessed as inhibition of collagen-induced platelet aggregation treated for 5 mins prior to collagen challenge for 5 mins by turbidimetric method; format: functional, cell-free
Platelet [6] = assay: Antiplatelet activity in human platelet-rich plasma assessed as inhibition of ristocetin-induced platelet aggregation treated for 5 mins prior to ristocetin challenge for 5 mins by turbidimetric method; format: functional, cell-free
[7] = Antiplatelet activity in human platelet-rich plasma assessed as inhibition of U46619-induced platelet aggregation treated for 5 mins prior to U46619 challenge for 5 mins by turbidimetric method; format: functional, cell-free
Platelet [8] = assay: Antiplatelet activity in human platelet-rich plasma assessed as inhibition of TRAP-induced platelet aggregation treated for 5 mins prior to TRAP challenge for 5 mins by turbidimetric method; format: functional, cell-free
[9] = Antiplatelet activity in human platelet-rich plasma assessed as inhibition of arachidonic acid-induced platelet aggregation treated for 5 mins prior to arachidonic acid challenge for 5 mins by turbidimetric method; format: functional, cell-free
Platelet [10] = assay: Antiplatelet activity in human platelet-rich plasma assessed as inhibition of ADP-induced platelet aggregation treated for 5 mins prior to ADP challenge for 5 mins by turbidimetric method; format: functional, cell-free

Compound	inhibition at 10 µM [1]	Activity (Mus musculus [2])	further results
CC(C)(C)OC(=O)NC[C@@H]1CCCN(C(=O)[C@@H]2CCC(=O)N2Cc2ccc(Cl)cc2)C1	35%	50%	–
Cc1ccc(CN2C(=O)CCC[C@H]2C(=O)N2CCC[C@@H](CNC(=O)OC(C)(C)C)C2)cc1	18%	40%	–
COc1cccc(CN2C(=O)CC[C@H]2C(=O)N2CCC[C@@H](CNC(=O)OC(C)(C)C)C2)c1	34%	–	–
COc1ccccc1CN1C(=O)CC[C@H]1C(=O)N1CCC[C@@H](CNC(=O)OC(C)(C)C)C1	32%	40%	–
Cc1ccc(CN2C(=O)CC[C@H]2C(=O)N2CCC[C@@H](CNS(=O)(=O)c3ccc(C)cc3)C2)cc1	–	40%	–
Cc1ccc(CN2C(=O)CC[C@H]2C(=O)N2CCC[C@@H](CNC(=O)c3ccc(C)cc3)C2)cc1	–	30%	–
CC(C)(C)OC(=O)NC[C@@H]1CCCN(C(=O)[C@@H]2CCC(=O)N2Cc2ccc(Br)cc2)C1	20%	40%	–
Cc1ccc(C(=O)N2CSC[C@H]2C(=O)N2CCC[C@H](CNC(=O)OC(C)(C)C)C2)cc1	–	40%	Activity (Mus musculus [3]): 50%
CC(C)(C)OC(=O)NC[C@@H]1CCCN(C(=O)[C@@H]2CCC(=O)N2Cc2cccc(C#N)c2)C1	6%	30%	–
CC(C)(C)OC(=O)NC[C@H]1CCCN(C(=O)[C@@H]2CCC(=O)N2Cc2ccc(Br)cc2)C1	4%	50%	–
CC(C)(C)OC(=O)NC[C@@H]1CCCN(C(=O)[C@@H]2CCC(=O)N2Cc2ccccc2)C1	26%	20%	–
CC(C)(C)OC(=O)NC[C@@H]1CCCN(C(=O)[C@@H]2CCC(=O)N2Cc2c(Cl)cccc2Cl)C1	24%	20%	–
Cc1ccc(CN2C(=O)CCC[C@H]2C(=O)N2CCC[C@H](CNC(=O)OC(C)(C)C)C2)cc1	22%	50%	–
COc1ccc(CN2C(=O)CC[C@H]2C(=O)N2CCC[C@H](CNC(=O)OC(C)(C)C)C2)cc1	25%	20%	–
Cc1cccc(CN2C(=O)CC[C@H]2C(=O)N2CCC[C@@H](CNC(=O)OC(C)(C)C)C2)c1	28%	30%	–
CC(C)(C)OC(=O)NCC1CCCN(C(=O)[C@@H]2CCC(=O)N2Cc2ccc(Br)cc2)C1 (mixture of isomers)	–	67%	inhibition at 30 µM [4]: 66.4%; Activity (Mus musculus [3]): 60%
Cc1ccc(CN2C(=O)CC[C@H]2C(=O)N2CCC[C@@H](CNC(=O)[C@H](Cc3ccccc3)NC(=O)OCc3ccccc3)C2)cc1	–	30%	–
COc1ccc(CN2C(=O)CC[C@H]2C(=O)N2CCC[C@@H](CNC(=O)OC(C)(C)C)C2)cc1	7%	20%	–
COc1ccccc1CN1C(=O)CC[C@H]1C(=O)N1CCC[C@H](CNC(=O)OC(C)(C)C)C1	22%	50%	–
Cc1ccc(CN2C(=O)OC[C@H]2C(=O)N2CCC[C@@H](CNC(=O)OC(C)(C)C)C2)cc1	–	30%	Activity (Mus musculus [3]): 54%
CC(C)(C)OC(=O)NC[C@H]1CCCN(C(=O)[C@@H]2CCC(=O)N2Cc2ccc3ccccc3c2)C1	22%	22.3%	–
CC(C)(C)OC(=O)NC[C@H]1CCCN(C(=O)[C@@H]2CCC(=O)N2Cc2ccccc2)C1	17%	50%	–
O=C(CNC(=O)OCc1ccccc1)NCC1CCCN(C(=O)[C@@H]2CCC(=O)N2Cc2ccccc2)C1 (mixture of isomers)	–	40%	inhibition at 30 µM [4]: 12%; Activity (Mus musculus [3]): 13%
CC(C)(C)OC(=O)NC[C@H]1CCCN(C(=O)[C@@H]2CCC(=O)N2Cc2c(Cl)cccc2Cl)C1	22%	10%	–
CC(C)(C)C(=O)NCC1CCCN(C(=O)[C@@H]2CCC(=O)N2Cc2ccccc2)C1 (mixture of isomers)	–	50%	inhibition at 30 µM [4]: 2.4%; Activity (Mus musculus [3]): 41%
Cc1ccc(CN2C(=O)OC[C@H]2C(=O)N2CCC[C@H](CNC(=O)OC(C)(C)C)C2)cc1	–	20%	Activity (Mus musculus [3]): 10%
CC(C)(C)OC(=O)NCC1CCN(C(=O)[C@@H]2CCC(=O)N2Cc2c(Cl)cccc2Cl)CC1	–	70%	inhibition at 30 µM [4]: 80%; Activity (Mus musculus [3]): 50%
CC(C)(C)OC(=O)NCC1CCCN(C(=O)[C@@H]2CCC(=O)N2C/C=C/c2ccccc2)C1 (mixture of isomers)	–	30%	inhibition at 30 µM [4]: 42%; Activity (Mus musculus [3]): 0%

Compound	inhibition at 10 µM [1]	Activity (Mus musculus [2])	further results
CC(C)(C)OC(=O)NC[C@H]1CCCN(C(=O)[C@@H]2CCC(=O)N2Cc2ccccc2Br)C1	6%	50%	–
CC(C)(C)OC(=O)NC[C@@H]1CCCN(C(=O)[C@@H]2CCC(=O)N2Cc2ccccc2Br)C1	27%	50%	–
Cc1ccc(CN2C(=O)CC[C@H]2C(=O)N2CCC[C@@H](CNC(=O)[C@H](CC(C)C)NC(=O)OCc3ccccc3)C2)cc1	–	30%	–
O=C(NCC1CCN(C(=O)[C@@H]2CCC(=O)N2Cc2ccc(Br)cc2)CC1)OCc1ccccc1	–	70%	inhibition at 30 µM [4]: 11%; Activity (Mus musculus [3]): 25%
CC(C)(C)OC(=O)NCC1CCN(C(=O)[C@@H]2CCC(=O)N2Cc2ccc(C#N)cc2)CC1	–	40%	inhibition at 30 µM [4]: 34%; Activity (Mus musculus [3]): 0%
O=C([C@@H]1CCC(=O)N1Cc1ccccc1)N1CCN(c2ccccc2F)CC1	–	50%	inhibition (INH) [5]: 57%
CC(C)(C)OC(=O)NC[C@@H]1CCCN(C(=O)[C@@H]2CCC(=O)N2Cc2ccc3ccccc3c2)C1	29%	30%	–
CC(C)(C)OC(=O)NC[C@@H]1CCCN(C(=O)[C@@H]2CCC(=O)N2Cc2ccc(Cl)c(Cl)c2)C1	27%	20%	–
Cc1ccc(C(=O)N2CSC[C@H]2C(=O)N2CCC[C@@H](CNC(=O)OC(C)(C)C)C2)cc1	–	10%	Activity (Mus musculus [3]): 8%
CC1OCC(=O)N(Cc2ccccc2)[C@@H]1C(=O)N1CCC[C@@H](CNC(=O)OC(C)(C)C)C1 (stereo partly drawn)	–	20%	–
Cc1ccc(CN2C(=O)CSC[C@H]2C(=O)N2CCCC(CNC(=O)OC(C)(C)C)C2)cc1 (single isomer, unassigned)	18%	30%	–
CC(C)(C)OC(=O)NCC1CCCN(C(=O)[C@@H]2CCC(=O)N2Cc2ccccc2Cl)C1 (mixture of isomers)	–	70%	inhibition at 30 µM [4]: 15%; Activity (Mus musculus [3]): 60%
CC(C)(C)OC(=O)NC[C@H]1CCCN(C(=O)[C@@H]2CCC(=O)N2Cc2cccc(C#N)c2)C1	19%	20%	–
Cc1ccc(CN2C(=O)COC(C)[C@H]2C(=O)N2CCC[C@H](CNC(=O)OC(C)(C)C)C2)cc1 (stereo partly drawn)	–	30%	–
COc1cccc(CN2C(=O)CC[C@H]2C(=O)N2CCC[C@H](CNC(=O)OC(C)(C)C)C2)c1	6%	22.3%	–
Cc1ccc(CN2CSC[C@H]2C(=O)N2CCC[C@H](CNC(=O)OC(C)(C)C)C2)cc1	–	60%	inhibition (Platelet [6]): inactive; inhibition (INH) [7]: 100%; pIC50 ([7]; Homo sapiens, Platelet, Plasma): 5.57; inhibition (INH) [5]: 87%; pIC50 ([5]; Homo sapiens, Platelet, Plasma): 5.48; inhibition (Platelet [8]): inactive; Activity (Mus musculus [3]): 72%; inhibition (INH) [9]: 93%; pIC50 ([9]; Homo sapiens, Platelet, Plasma): 5.22; inhibition (Platelet [10]): inactive
CC(C)(C)OC(=O)NC[C@H]1CCCN(C(=O)[C@@H]2CCC(=O)N2Cc2ccc(Cl)cc2)C1	21%	15%	–
Cc1ccc(S(=O)(=O)NCC2CCCN(C(=O)[C@@H]3CCC(=O)N3Cc3ccccc3)C2)cc1 (mixture of isomers)	–	25%	inhibition at 30 µM [4]: 72%; Activity (Mus musculus [3]): 0%
CC(C)(C)OC(=O)NC[C@H]1CCCN(C(=O)[C@@H]2CCC(=O)N2Cc2ccc(C#N)cc2)C1	25%	10%	–
CC1OCC(=O)N(Cc2ccccc2)[C@@H]1C(=O)N1CCC[C@H](CNC(=O)OC(C)(C)C)C1 (stereo partly drawn)	–	20%	–
Cc1ccc(CN2C(=O)CSCC2C(=O)N2CCC[C@@H](CNC(=O)OC(C)(C)C)C2)cc1 (single isomer, unassigned)	15%	30%	–
CC(C)(C)OC(=O)NC[C@H]1CCCN(C(=O)[C@@H]2CCC(=O)N2Cc2ccc(Cl)c(Cl)c2)C1	24%	30%	–
Cc1cccc(CN2C(=O)CC[C@H]2C(=O)N2CCC[C@H](CNC(=O)OC(C)(C)C)C2)c1	13%	70%	–
O=C([C@@H]1CCC(=O)N1Cc1ccccc1)N1CCN(c2ccccc2Cl)CC1	–	40%	inhibition (INH) [5]: 74%
Cc1ccc(CN2C(=O)COC(C)[C@H]2C(=O)N2CCC[C@@H](CNC(=O)OC(C)(C)C)C2)cc1 (stereo partly drawn)	–	20%	–
Cc1ccc(CN2C(=O)CC[C@H]2C(=O)N2CCC[C@@H](CNC(=O)[C@@H](NC(=O)OCc3ccccc3)C(C)C)C2)cc1	–	10%	–
CC(C)(C)OC(=O)NC[C@@H]1CCCN(C(=O)[C@@H]2CCC(=O)N2Cc2ccc(C#N)cc2)C1	8%	60%	–
